Among the data in ChEMBL document CHEMBL1149932, “DNA - gyrase inhibition and antibacterial activity of fluoro-quinolones: influence of the position of the fluorine(s)” (1992) are MIC, IC0 and IC100 values, retold here.

Each structure is given as a SMILES string. ≈ marks a conversion by molar mass, not a printed value.

The subject of assay [1] is Staphylococcus epidermidis. Kind of assay: In vitro antibacterial activity expressed as MIC against Staphylococcus epidermidis. Format: functional.
Assay [2] has as its system Escherichia coli. The assay can be described thus: In vitro antibacterial activity expressed as MIC against Escherichia coli. Format: functional.
Assay [3] relates to Enterococcus faecalis. The assay can be described thus: In vitro antibacterial activity expressed as MIC against Enterococcus faecalis. It counts as functional.
In assay [4] the target is T1, DNA gyrase (Escherichia coli) (UniProt P0AES6+P0AES4). Kind of assay: In vitro inhibitory least concentration which show effect against Escherichia coli HR DNA gyrase. Format: protein-complex assay.
Assay [5] deals with Klebsiella oxytoca. Kind of assay: (§1) In vitro antibacterial activity expressed as MIC against Klebsiella oxytoca. Format: functional.
Assay [6] addresses T1, DNA gyrase (Escherichia coli). Kind of assay: In vitro antibacterial activity expressed as MIC against Escherichia coli HR DNA gyrase. Format: protein-complex assay.
For assay [7], the system named is Serratia marcescens. Kind of assay: In vitro antibacterial activity expressed as MIC against Serratia marcescens. Format: functional.
Assay [8] has as its system Providencia stuartii. The assay can be described thus: In vitro antibacterial activity expressed as MIC against Providencia stuartii II. Format: functional.
The subject of assay [9] is Streptococcus pneumoniae. The assay can be described thus: In vitro antibacterial activity expressed as MIC against Streptococcus pneumoniae. Format: functional.
Assay [10] concerns Morganella morganii. Kind of assay: In vitro antibacterial activity expressed as MIC against Morganella morganii II. It counts as functional.
The test system of assay [11] is Haemophilus influenzae. Kind of assay: (§2) In vitro antibacterial activity expressed as MIC against Haemophilus influenzae. It counts as functional.
For assay [12], the system named is Pseudomonas aeruginosa. The assay can be described thus: In vitro antibacterial activity expressed as MIC against Pseudomonas aeruginosa. It counts as functional.
The test system of assay [13] is Staphylococcus aureus. Kind of assay: In vitro antibacterial activity expressed as MIC against Staphylococcus aureus. It counts as functional.
In assay [14] the test system is Proteus mirabilis. The assay can be described thus: (§3) In vitro antibacterial activity expressed as MIC against Proteus mirabilis. Format: functional.
Assay [15] is described as follows: In vitro antibacterial activity expressed as MIC against Clostridium perfringens. Format: functional.
For assay [16], the system named is Providencia rettgeri. Kind of assay: (§4) In vitro antibacterial activity expressed as MIC against Providencia rettgeri. It counts as functional.
Assay [17] concerns Klebsiella aerogenes. The assay can be described thus: (§5) In vitro antibacterial activity expressed as MIC against Enterobacter aerogenes. It counts as functional.
In assay [18] the target is T1, DNA gyrase (Escherichia coli). Kind of assay: In vitro inhibitory concentration which show total effect against Escherichia coli HR DNA gyrase. It counts as protein-complex assay.
The test system of assay [19] is Providencia rettgeri. Described as §4.
Assay [20] relates to Proteus mirabilis. The description is as §3.
Assay [21] concerns Klebsiella aerogenes. The description is as §5.
Assay [22] deals with Klebsiella oxytoca. The assay is described as §1.
For assay [23], the system named is Haemophilus influenzae. Described as §2.

For the compound `N[C@H]1CCN(c2ccc3c(=O)c(C(=O)O)cn(C4CC4)c3c2F)C1`, the MIC in assay [1] came to 0.125 µg/mL (≈ 0.377 µM); in [2] it was 0.007 µg/mL (≈ 0.0211 µM); in [3], 0.25 µg/mL (≈ 0.754 µM); in assay [5], 0.06 µg/mL (≈ 0.181 µM); in assay [6] it was 0.009 µg/mL (≈ 0.0272 µM); in assay [7] it was 0.03 µg/mL (≈ 0.0905 µM). The MIC is 0.06 µg/mL (≈ 0.181 µM) in assay [8]; 0.5 µg/mL (≈ 1.51 µM) in [9]; 0.015 µg/mL (≈ 0.0453 µM) in assay [10]; 0.007 µg/mL (≈ 0.0211 µM) in [11]; 0.25 µg/mL (≈ 0.754 µM) in [12]; 0.06 µg/mL (≈ 0.181 µM) in assay [13]. Also, the MIC stood at 0.03 µg/mL (≈ 0.0905 µM) in [14], 0.5 µg/mL (≈ 1.51 µM) in [15], 1 µg/mL (≈ 3.02 µM) in [16] and 0.03 µg/mL (≈ 0.0905 µM) in assay [17]. This compound had an IC0 in assay [4] of 0.32 µg/mL. The same compound came in with an IC100 in [18] of 10 µg/mL.
`N[C@H]1CCN(c2cc(F)c3c(=O)c(C(=O)O)cn(C4CC4)c3c2)C1`: the MIC in assay [1] stood at 8 µg/mL (≈ 24.1 µM); in assay [2], 0.25 µg/mL (≈ 0.754 µM); in assay [3] it was 16 µg/mL (≈ 48.3 µM); in [5], 1 µg/mL (≈ 3.02 µM); in assay [6] it was 0.156 µg/mL (≈ 0.471 µM); in assay [7], 0.5 µg/mL (≈ 1.51 µM). Also, the MIC in [8] worked out at 1 µg/mL (≈ 3.02 µM); in [9] it was 4 µg/mL (≈ 12.1 µM); in assay [10], 0.25 µg/mL (≈ 0.754 µM); in assay [11], 0.13 µg/mL (≈ 0.392 µM); in assay [12], 4 µg/mL (≈ 12.1 µM); in [13], 8 µg/mL (≈ 24.1 µM). Besides, the MIC in assay [14] was determined as 0.5 µg/mL (≈ 1.51 µM); in assay [16] it was 16 µg/mL (≈ 48.3 µM); in assay [17] it was 0.5 µg/mL (≈ 1.51 µM). Moreover, the IC0 in assay [4] is 0.64 µg/mL. Further, the IC100 in assay [18] was determined as 20 µg/mL.
For the compound `N[C@H]1CCN(c2cc(F)c3c(=O)c(C(=O)O)cn(C4CC4)c3c2F)C1`, the MIC worked out at 0.5 µg/mL (≈ 1.43 µM) in [1]; 0.06 µg/mL (≈ 0.172 µM) in assay [2]; 4 µg/mL (≈ 11.5 µM) in [3]; 0.5 µg/mL (≈ 1.43 µM) in assay [5]; 0.078 µg/mL (≈ 0.223 µM) in assay [6]; 0.25 µg/mL (≈ 0.716 µM) in assay [7]. In addition, the MIC in [8] came to 0.5 µg/mL (≈ 1.43 µM); in assay [9], 4 µg/mL (≈ 11.5 µM); in assay [10] it was 0.06 µg/mL (≈ 0.172 µM); in assay [11], 0.06 µg/mL (≈ 0.172 µM); in assay [12], 2 µg/mL (≈ 5.73 µM); in assay [13], 1 µg/mL (≈ 2.86 µM). The MIC in assay [14] was 0.13 µg/mL (≈ 0.372 µM); in [15], 1 µg/mL (≈ 2.86 µM); in assay [16], 8 µg/mL (≈ 22.9 µM); in assay [17], 0.25 µg/mL (≈ 0.716 µM). For the same compound, the IC0 in assay [4] was 0.32 µg/mL. This compound also yielded an IC100 in [18] of 10 µg/mL.
Turning to `O=C(O)c1cn(C2CC2)c2cc(N3CCNCC3)c(F)cc2c1=O` [CIPROFLOXACIN], the MIC in [1] was 0.5 µg/mL (≈ 1.51 µM); in [3] it was 0.5 µg/mL (≈ 1.51 µM); in [6] it was 0.009 µg/mL (≈ 0.0272 µM); in [7], 0.03 µg/mL (≈ 0.0905 µM); in [19], 0.5 µg/mL (≈ 1.51 µM); in assay [8] it was 0.03 µg/mL (≈ 0.0905 µM). In addition, the MIC in [20] was found to be 0.008 µg/mL (≈ 0.0241 µM); in assay [21] it was 0.03 µg/mL (≈ 0.0905 µM); in [22] it was 0.06 µg/mL (≈ 0.181 µM); in [9], 0.25 µg/mL (≈ 0.754 µM); in [10], 0.08 µg/mL (≈ 0.241 µM); in assay [23] it was 0.03 µg/mL (≈ 0.0905 µM). This compound also showed an MIC in assay [13] of 0.25 µg/mL (≈ 0.754 µM). This compound returned an IC0 in assay [18] of 0.12 µg/mL. For the same compound, the IC100 in assay [18] worked out at 10 µg/mL.
For the compound `N[C@H]1CCN(c2cc3c(cc2F)c(=O)c(C(=O)O)cn3C2CC2)C1`, the MIC in assay [1] is 0.03 µg/mL (≈ 0.0905 µM); in assay [2], 0.008 µg/mL (≈ 0.0241 µM); in [3], 0.25 µg/mL (≈ 0.754 µM); in assay [5], 0.03 µg/mL (≈ 0.0905 µM); in [6] it was 0.005 µg/mL (≈ 0.0151 µM); in assay [7] it was 0.03 µg/mL (≈ 0.0905 µM). The MIC worked out at 0.03 µg/mL (≈ 0.0905 µM) in assay [8]; 0.13 µg/mL (≈ 0.392 µM) in assay [9]; 0.016 µg/mL (≈ 0.0483 µM) in [10]; 0.002 µg/mL (≈ 0.00604 µM) in assay [11]; 0.25 µg/mL (≈ 0.754 µM) in assay [12]; 0.06 µg/mL (≈ 0.181 µM) in assay [13]. For the same compound, the MIC in assay [14] stood at 0.03 µg/mL (≈ 0.0905 µM); in assay [15] it was 0.25 µg/mL (≈ 0.754 µM); in assay [16], 0.5 µg/mL (≈ 1.51 µM); in assay [17] it was 0.016 µg/mL (≈ 0.0483 µM). In assay [4], this compound gave an IC0 of 0.24 µg/mL. In [18], this compound gave an IC100 of 20 µg/mL.
In the case of `CCn1cc(C(=O)O)c(=O)c2ccc(C)nc21`, the MIC in [6] amounted to 2.5 µg/mL (≈ 10.8 µM). In addition, in [18], the IC0 amounted to 25 µg/mL and the IC100 came out at 200 µg/mL.
In assay [6], `CCn1cc(C(=O)O)c(=O)c2cc(F)c(N3CCN(C)CC3)cc21` registered an MIC of 0.019 µg/mL (≈ 0.057 µM). Further, in assay [18], the IC0 came to 0.64 µg/mL and the IC100 worked out at 20 µg/mL.
`N[C@H]1CCN(c2ccc3c(=O)c(C(=O)O)cn(C4CC4)c3c2)C1`: the MIC in assay [1] came to 0.25 µg/mL (≈ 0.798 µM); in assay [2] it was 0.03 µg/mL (≈ 0.0957 µM); in [3], 4 µg/mL (≈ 12.8 µM); in assay [5], 0.25 µg/mL (≈ 0.798 µM); in assay [6], 0.009 µg/mL (≈ 0.0287 µM); in [7] it was 0.5 µg/mL (≈ 1.6 µM). For the same compound, the MIC is 1 µg/mL (≈ 3.19 µM) in assay [8]; 2 µg/mL (≈ 6.38 µM) in assay [9]; 0.13 µg/mL (≈ 0.415 µM) in [10]; 0.08 µg/mL (≈ 0.255 µM) in assay [11]; 0.5 µg/mL (≈ 1.6 µM) in assay [12]; 0.5 µg/mL (≈ 1.6 µM) in assay [13]. Further, the MIC in assay [14] came out at 0.13 µg/mL (≈ 0.415 µM); in assay [16] it was 8 µg/mL (≈ 25.5 µM); in [17], 0.06 µg/mL (≈ 0.191 µM). This compound came in with an IC0 in assay [4] of 0.32 µg/mL. Moreover, the IC100 in assay [18] came out at 20 µg/mL.
